Values of other authors in US20070099846A1, “Composition containing dipeptide of histidine and alanine for reducing uric acid and method for reducing uric acid using the dipeptide” (LYTONE ENTERPRISE, INC., priority 2003, published 2007).

System: peptidase and proteases excreted from pancreas or other digestive organs

## NCCC(=O)N[C@@H](Cc1cnc[nH]1)C(=O)O [carnosine, β-alanyl-L-histidine]
  Resistance against digestion by peptidase and proteases: resist against digestion
